Measurements published in US20200291018A1, “TAM KINASE INHIBITORS” (SYROS PHARMACEUTICALS, INC., priority 2017, published 2020).

How the values were obtained:
TYRO3 = molecular target: T1, TYRO3 (Homo sapiens, UniProt Q06418); test: TR-FRET kinase activity assay, TYRO3; type: biochemical; conditions: ATP at Km, 60 minutes
T1 sequence (Q06418 41-890): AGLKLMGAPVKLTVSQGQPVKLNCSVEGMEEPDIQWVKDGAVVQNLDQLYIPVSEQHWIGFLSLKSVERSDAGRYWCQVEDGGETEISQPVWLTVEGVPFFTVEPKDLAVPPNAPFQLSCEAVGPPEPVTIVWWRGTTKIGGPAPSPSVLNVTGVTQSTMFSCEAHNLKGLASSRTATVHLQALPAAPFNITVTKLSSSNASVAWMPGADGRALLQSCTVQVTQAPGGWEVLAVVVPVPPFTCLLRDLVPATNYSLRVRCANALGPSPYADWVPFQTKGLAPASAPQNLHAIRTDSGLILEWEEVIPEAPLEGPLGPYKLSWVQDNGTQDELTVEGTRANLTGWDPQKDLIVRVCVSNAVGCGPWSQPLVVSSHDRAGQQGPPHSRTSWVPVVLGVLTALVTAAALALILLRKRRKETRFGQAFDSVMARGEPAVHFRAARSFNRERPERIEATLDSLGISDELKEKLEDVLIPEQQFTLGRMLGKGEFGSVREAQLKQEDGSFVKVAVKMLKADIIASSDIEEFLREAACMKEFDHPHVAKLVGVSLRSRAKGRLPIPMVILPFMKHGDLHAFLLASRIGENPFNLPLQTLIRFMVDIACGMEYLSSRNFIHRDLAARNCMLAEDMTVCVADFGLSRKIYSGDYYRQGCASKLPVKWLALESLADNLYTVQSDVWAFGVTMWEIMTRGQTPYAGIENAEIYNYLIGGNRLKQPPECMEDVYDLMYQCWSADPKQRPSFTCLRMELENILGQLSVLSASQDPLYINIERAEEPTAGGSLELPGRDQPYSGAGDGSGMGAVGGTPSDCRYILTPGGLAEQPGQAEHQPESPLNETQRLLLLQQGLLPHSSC
How it was run: (§1)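 IC50 came from TR-FRET signal after 30 min dark development with a Europium-labeled phospho-specific antibody. This followed a 60 min RT reaction, stopped with EDTA, started with ATP at Km per enzyme. Peptide substrate, enzyme and compound were premixed in HEPES pH 7.5 buffer with MgCl2, EGTA, Brij 35 and DTT.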

MERTK = molecular target: T2, MERTK (Homo sapiens, UniProt Q12866); test: TR-FRET kinase activity assay, MERTK; type: biochemical; conditions: for IC50: TR-FRET activity assay, ATP at Km, 60 minutes, read-out: Mer IC50; for Mer/Flt3 ratio (FLT3 IC50/Mer IC50): ratio calculated as FLT3 IC50/Mer IC50
T2 sequence (Q12866 21-999): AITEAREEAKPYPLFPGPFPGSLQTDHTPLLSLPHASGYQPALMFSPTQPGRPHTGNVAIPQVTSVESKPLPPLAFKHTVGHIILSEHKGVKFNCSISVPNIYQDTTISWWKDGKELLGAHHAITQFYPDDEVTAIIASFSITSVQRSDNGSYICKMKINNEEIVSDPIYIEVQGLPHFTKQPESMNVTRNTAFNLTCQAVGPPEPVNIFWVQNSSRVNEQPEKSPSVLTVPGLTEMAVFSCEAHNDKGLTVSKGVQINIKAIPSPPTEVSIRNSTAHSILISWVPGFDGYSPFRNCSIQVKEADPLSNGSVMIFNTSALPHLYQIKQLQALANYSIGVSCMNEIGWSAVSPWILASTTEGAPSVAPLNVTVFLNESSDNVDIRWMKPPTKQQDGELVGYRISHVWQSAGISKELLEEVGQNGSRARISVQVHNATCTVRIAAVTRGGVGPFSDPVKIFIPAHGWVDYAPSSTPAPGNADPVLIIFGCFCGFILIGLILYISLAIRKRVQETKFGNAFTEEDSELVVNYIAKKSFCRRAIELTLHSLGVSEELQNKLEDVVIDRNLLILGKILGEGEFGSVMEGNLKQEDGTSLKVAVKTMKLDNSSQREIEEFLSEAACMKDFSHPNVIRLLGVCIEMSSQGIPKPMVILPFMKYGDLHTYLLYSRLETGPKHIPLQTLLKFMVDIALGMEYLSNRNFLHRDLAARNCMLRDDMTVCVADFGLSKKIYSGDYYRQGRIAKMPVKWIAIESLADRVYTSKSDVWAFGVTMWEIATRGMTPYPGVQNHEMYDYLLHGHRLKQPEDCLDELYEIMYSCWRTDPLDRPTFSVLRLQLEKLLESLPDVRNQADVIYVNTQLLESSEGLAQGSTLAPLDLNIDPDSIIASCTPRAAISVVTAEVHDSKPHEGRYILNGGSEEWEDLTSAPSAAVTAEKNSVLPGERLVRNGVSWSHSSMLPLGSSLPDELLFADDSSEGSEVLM
How it was run: as §1

Row | SMILES | IC50 (TYRO3) | IC50 (MERTK) | Mer/Flt3 ratio (FLT3 IC50/Mer IC50) (MERTK)
1 | COC[C@H](C)Nc1ncc2c(OC3CCOCC3)ncc(-c3ccc(O)cc3)c2n1 [Compound 301] | 0.1 to 1 µM | ≤ 0.1 µM | +++ (a ratio of >100)
2 | CN1C[C@@H](Nc2ncc3c(OC4CCOCC4)ncc([C@H]4CC[C@H](O)CC4)c3n2)CC1=O [Compound 324] | 1 to 10 µM | 0.1 to 1 µM | ++ (a ratio of between 10 and 100)
3 | COC[C@H](C)Nc1ncc2c(O[C@H]3C[C@H](O)C3)ncc([C@H]3CC[C@H](O)CC3)c2n1 [Compound 295] | ≤ 0.1 µM | ≤ 0.1 µM | +++ (a ratio of >100)
4 | C[C@@H](CF)Nc1ncc2c(OC3CCOCC3)ncc([C@H]3CC[C@H](O)CC3)c2n1 [Compound 304] | 0.1 to 1 µM | ≤ 0.1 µM | +++ (a ratio of >100)
5 | COC[C@H](C)Nc1ncc2c(OC3CCOCC3)ncc(-c3ccc(N4CCN(C)CC4)cc3)c2n1 [Compound 279] | 0.1 to 1 µM | 0.1 to 1 µM | ++ (a ratio of between 10 and 100)
6 | COC[C@H](C)Nc1ncc2c(OC3CCOCC3)ncc([C@H]3CC[C@@](C)(O)CC3)c2n1 [Compound 294] | 0.1 to 1 µM | ≤ 0.1 µM | +++ (a ratio of >100)
7 | COC[C@H](C)Nc1ncc2c(OC3CCOCC3)ncc(-c3ccnnc3)c2n1 [Compound 342] | 1 to 10 µM | 1 to 10 µM | + (a ratio of >2.0 and <10)
8 | CN1C[C@H](Nc2ncc3c(OC4CCOCC4)ncc([C@H]4CC[C@H](O)CC4)c3n2)CC1=O [Compound 323] | 1 to 10 µM | ≤ 0.1 µM | +++ (a ratio of >100)
9 | C[C@@H](CC#N)Nc1ncc2c(OC3CCOCC3)ncc([C@H]3CC[C@H](O)CC3)c2n1 [Compound 292] | 0.1 to 1 µM | ≤ 0.1 µM | +++ (a ratio of >100)
10 | CNS(=O)(=O)N[C@H]1CC[C@H](c2cnc(OC3CCOCC3)c3cnc(N[C@@H](C)COC)nc32)CC1 [Compound 317] | ≤ 0.1 µM | ≤ 0.1 µM | +++ (a ratio of >100)
11 | N#Cc1ccc(Nc2ncc3c(OC4CCNCC4)ncc([C@H]4CC[C@H](O)CC4)c3n2)cc1 [Compound 331] | ≤ 0.1 µM | ≤ 0.1 µM | + (a ratio of >2.0 and <10)
12 | COC[C@H](C)Nc1ncc2c(O[C@@H]3CCOC3)ncc([C@H]3CC[C@H](O)CC3)c2n1 [Compound 354] | 0.1 to 1 µM | ≤ 0.1 µM | +++ (a ratio of >100)
13 | COC[C@H](C)Nc1ncc2c(OC3CCOCC3)ncc(-c3ccc(CC#N)cc3)c2n1 [Compound 319] | 0.1 to 1 µM | ≤ 0.1 µM | +++ (a ratio of >100)
14 | C[C@@H](CCF)Nc1ncc2c(OC3CCOCC3)ncc([C@H]3CC[C@H](O)CC3)c2n1 [Compound 311] | ≤ 0.1 µM | ≤ 0.1 µM | +++ (a ratio of >100)
15 | CC(C)Nc1ncc2c(OC3CCOCC3)ncc(-c3cccc(S(=O)(=O)N(C)C)c3)c2n1 [Compound 288] | ≤ 0.1 µM | ≤ 0.1 µM | +++ (a ratio of >100)
16 | CC[C@H](C)Nc1ncc2c(OC3CCN(c4ncccn4)CC3)ncc([C@H]3CC[C@H](O)CC3)c2n1 [Compound 306] | 0.1 to 1 µM | ≤ 0.1 µM | +++ (a ratio of >100)

Row | SMILES | IC50 (TYRO3) | IC50 (MERTK) | Mer/Flt3 ratio (FLT3 IC50/Mer IC50) (MERTK)
17 | COC[C@H](C)Nc1ncc2c(OC3CCOCC3)ncc(-c3ccc(C4CCN(C)CC4)cc3)c2n1 [Compound 280] | ≤ 0.1 µM | ≤ 0.1 µM | ++ (a ratio of between 10 and 100)
18 | COCC[C@H](C)Nc1ncc2c(OC3CCOCC3)ncc([C@H]3CC[C@H](O)CC3)c2n1 [Compound 312] | 0.1 to 1 µM | ≤ 0.1 µM | +++ (a ratio of >100)
19 | COC[C@H](C)Nc1ncc2c(OC3CCN(c4ncccn4)CC3)ncc([C@H]3CC[C@H](O)CC3)c2n1 [Compound 344] | 0.1 to 1 µM | ≤ 0.1 µM | +++ (a ratio of >100)
20 | CCCC(C)Nc1ncc2c(=O)n(C3CCNCC3)cc([C@H]3CC[C@H](O)CC3)c2n1 (stereo partly drawn) [Compound 112] | ≤ 0.1 µM | ≤ 0.1 µM | +++ (a ratio of >100)
21 | CNC(=O)Nc1ccc(-c2cnc(OC3CCOCC3)c3cnc(N[C@@H](C)COC)nc23)cc1 [Compound 297] | 0.1 to 1 µM | 0.1 to 1 µM | ++ (a ratio of between 10 and 100)
22 | COC[C@H](C)Nc1ncc2c(OC3CCOCC3)ncc(-c3ccc(N)cc3)c2n1 [Compound 309] | 0.1 to 1 µM | ≤ 0.1 µM | +++ (a ratio of >100)
23 | COC[C@H](C)Nc1ncc2c(OC3CCOCC3)ncc(-c3cccc(S(N)(=O)=O)c3)c2n1 [Compound 328] | 0.1 to 1 µM | 0.1 to 1 µM | ++ (a ratio of between 10 and 100)
24 | CN(C)S(=O)(=O)c1cccc(-c2cnc(OC3CCOCC3)c3cnc(NC4(C)CC4)nc23)c1 [Compound 322] | 0.1 to 1 µM | ≤ 0.1 µM | +++ (a ratio of >100)
25 | CC1(Nc2ncc3c(OC4CCNCC4)ncc([C@H]4CC[C@H](O)CC4)c3n2)CC1 [Compound 291] | ≤ 0.1 µM | ≤ 0.1 µM | +++ (a ratio of >100)
26 | COC[C@H](C)Nc1ncc2c(OC3CCOCC3)ncc([C@@H]3CCCN(C)C3)c2n1 [Compound 333] | 1 to 10 µM | 1 to 10 µM | + (a ratio of >2.0 and <10)
27 | C[C@@H](CC(F)(F)F)Nc1ncc2c(OC3CCN(C)CC3)ncc([C@H]3CC[C@H](O)CC3)c2n1 [Compound 352] | ≤ 0.1 µM | ≤ 0.1 µM | +++ (a ratio of >100)
28 | COC[C@H](C)Nc1cc2c(cn1)c(OC1CCOCC1)ncc2[C@H]1CC[C@H](O)CC1 [Compound 285] | 0.1 to 1 µM | ≤ 0.1 µM | +++ (a ratio of >100)
29 | O[C@H]1CC[C@H](c2cnc(OC3CCOCC3)c3cnc(N[C@H]4CCC(F)(F)C4)nc32)CC1 [Compound 336] | 0.1 to 1 µM | ≤ 0.1 µM | ++ (a ratio of between 10 and 100)
30 | COC[C@H](C)Nc1ncc2c(OC3CCOCC3)ncc(-c3cn[nH]c3)c2n1 [Compound 347] | 0.1 to 1 µM | 0.1 to 1 µM | + (a ratio of >2.0 and <10)
31 | CC[C@H](C)Nc1ncc2c(=O)n([C@H]3CC[C@H](N)CC3)cc([C@H]3CC[C@H](O)CC3)c2n1 [Compound 290] | ≤ 0.1 µM | ≤ 0.1 µM | +++ (a ratio of >100)
32 | COC[C@H](C)Nc1ncc2c(OC3CCN(S(C)(=O)=O)CC3)ncc([C@H]3CC[C@H](O)CC3)c2n1 [Compound 289] | 0.1 to 1 µM | ≤ 0.1 µM | +++ (a ratio of >100)
